From PMC11855827, “High-Throughput Screening of Five Compound Libraries for Anthelmintic Activity and Toxicity Leads to the Discovery of Two Flavonoid Compounds” (International Journal of Molecular Sciences, 2025)
Values joined by “and” are separate entries in the source; they are usually repeats but may differ in a detail not shown here. Identical values can stand only once. Like-named read-outs stand apart in the source and are kept apart here.

Columns and labels:
[1] = test system: C. elegans; assay: microbe, parasite or virus in culture; settings: Caenorhabditis elegans
[2] = test system: C. elegans; assay: C. elegans motility dose-response (DR) assay; set-up: species or system Caenorhabditis elegans
[3] = test system: C. elegans
[4] = test system: H. contortus susceptible strain; assay: Larval migration inhibition test (LMIT); set-up: species or system Haemonchus contortus; settings: L3, 100 μM, NE = Not Effective at 100 μM, control ivermectin 8.75 µg/mL
Excerpt: Eggs and third instar larvae (L3) of H. contortus from a field strain and a resistant strain of T. circumcincta were used in the current trials. These parasitic forms were obtained from fresh feces of Merino and Churra sheep experimentally infected at the experimental farm of the Instituto de Ganadería de Montaña (IGM, CSIC, Gruyeros, León, Spain) and purified according to previously described methods. Briefly, eggs were taken from fresh feces, washed, centrifuged and floated with a saturated sodium chloride solution, then concentrated, counted and used in the assays. L3 were obtained by culturing feces at 25 °C for 13 d. L3 larvae were […] in 0.5% sodium hypochlorite solution for 10 min at room temperature and washed to avoid excess salt. After washing, they were concentrated and counted for use.
The viability of H. contortus larvae was assessed by the larval migration inhibition test (LMIT) according to previously described methods. Briefly, 700 µL aliquots containing 500–600 L3 were prepared for each compound. […] After a 24 h incubation at 28 °C, the compound was removed by three washes, leaving a final volume of 1400 µL. After the washes, three 400 µL aliquots were taken from each tube and transferred to a 96-well plate with a MultiScreen mesh filter. The plates were incubated for a further 24 h at 28 °C to allow the motile L3 to pass through the 20 µm mesh for counting. Then, the number of larvae present in each well was counted to determine percentage of larval migration for each compound: % Larval migration=number of larvae migrating in compound wells/number of larvae migrating in negative control×100
For the larvae, ivermectin at 8.75 µg/mL and DMSO 0.5% (v/v) were used as controls and at least 12 replicates were performed. […] EC50 were determined by plotting the percentage of viability of the L1 against the concentration of each compound, using the nonlinear fit analysis provided by the SigmaPlot® 10.1.

[5] = test system: H. contortus susceptible strain; assay: Egg hatch inhibition (EHI), ovicidal effect; set-up: species or system Haemonchus contortus; settings: susceptible strain, 100 μM; NE = Not Effective at 100 μM; control thiabendazole 0.1 µg/mL
[6] = 0 h, read-out: Inhibition (%) 110 μM (0 h), C. elegans L4 motility, 110 μM, 0 h, mean ± SD of four experiments
[7] = 24 h, read-out: Inhibition (%) 110 μM (24 h), C. elegans L4 motility, 110 μM, 24 h, mean ± SD of four experiments
[8] = Caenorhabditis elegans, 24 h, read-out: EC50 (μM) at 24 h, C. elegans motility, DR assay, 24 h
[9] = read-out: EC50 (μM) at 24 h, C. elegans motility, DR assay
[10] = 0 h, read-out: Percentage of motility inhibition 0 h, Table S2, C. elegans SS assay, 110 μM, 0 h, averages of 4 data points
[11] = Table S2, C. elegans SS assay, 110 μM, 0 h, averages of 4 data points
[12] = 24 h, read-out: Percentage of motility inhibition 24 h, Table S2, C. elegans SS assay, 110 μM, 24 h, averages of 4 data points
[13] = Table S2, C. elegans SS assay, 110 μM, 24 h, averages of 4 data points
[14] = C. elegans L4 motility, 110 μM, 0 h, mean ± SD of four experiments
[15] = C. elegans L4 motility, 110 μM, 24 h, mean ± SD of four experiments

## NC(=O)c1ncn([C@@H]2O[C@H](CO)[C@@H](O)[C@H]2O)n1 [Ribavirin, reference compound]
[1]; [6]
  inhibition at 110 µM: 91 ± 5%
[1]; [7]
  inhibition at 110 µM: 76 ± 11%
[2]; [8]
  EC50: > 60 µM

## CN[C@H]1C[C@@H](N)[C@H](O)[C@@H](O[C@@H]2O[C@H](CO)[C@H](O)[C@@H]3OC4(O[C@H]23)O[C@H]([C@@H](N)CO)[C@H](O)[C@H](O)[C@H]4O)[C@@H]1O (stereo partly shown) [Hygromycin B, reference compound]
[3]
  Inhibition (%) 110 μM (0 h): 67 ± 28%
  Inhibition (%) 110 μM (24 h): 89 ± 5%
[2]; [9]
  EC50: > 60 µM

## Nc1ccc(S(=O)(=O)Nc2cnc3ccccc3n2)cc1 [Sulfaquinoxaline, reference compound]
[1]; [6]
  inhibition at 110 µM: 87 ± 1%
[1]; [7]
  inhibition at 110 µM: 67 ± 6%
[2]; [8]
  EC50: > 60 µM

## C=C(C)[C@@H]1CC[C@]2(C(=O)O)CC[C@]3(C)[C@H](CC[C@@H]4[C@@]5(C)CC[C@H](O)C(C)(C)[C@@H]5CC[C@]43C)[C@@H]12 [Betulinic acid]
[1]; [10]
  inhibition at 110 µM: 27%
[3]; [11]
  Percentage of motility inhibition 0 h: 22%

## CC1(C)CC[C@]2(C(=O)O)CC[C@]3(C)C(=CC[C@@H]4[C@@]5(C)CC[C@H](O)C(C)(C)[C@@H]5CC[C@]43C)[C@@H]2C1 [Oleanolic Acid]
[1]; 0 h, read-out: Percentage of motility inhibition 0 h
  inhibition at 110 µM: 4%
[3]; 110 µM
  Percentage of motility inhibition 24 h: 1% and 0%

## CC1(C)[C@@H](O)CC[C@]2(C)[C@H]3C(=O)C=C4[C@H]5C[C@@](C)(C(=O)O)CC[C@]5(C)CC[C@@]4(C)[C@]3(C)CC[C@@H]12 [18α-Glycyrrhetinic acid]
[1]; [12]
  inhibition at 110 µM: 18%
[3]; [13]
  Percentage of motility inhibition 24 h: 10%

## CC(C)=CCC/C(C)=C/CC/C(C)=C/CC/C=C(\C)CC/C=C(\C)CCC=C(C)C [Squalene]
[1]; [10]
  inhibition at 110 µM: 4%
[1]; [12]
  inhibition at 110 µM: 11%
[3]; 24 h, 110 µM
  Percentage of motility inhibition 24 h: 19%

## O=c1cc(-c2ccccc2)oc2cc(O)c(O)c(O)c12 [Baicalein]
[1]; [10]
  inhibition at 110 µM: 10%
[1]; [12]
  inhibition at 110 µM: 12%
[3]; 0 h, 110 μM
  Percentage of motility inhibition 0 h: 14%
[3]; 24 h, 110 µM
  Percentage of motility inhibition 24 h: 19%

## O=C1CCC[C@@H]2[C@H]3CCC[N+]4([O-])CCC[C@@H](CN12)[C@@H]34 (stereo partly shown) [Oxymatrine]
[1]; [12]
  inhibition at 110 µM: 11%
[3]; 24 h, 110 µM
  Percentage of motility inhibition 24 h: 6%

## C=C1CC[C@@H]2[C@](C)(CO)[C@H](O)CC[C@@]2(C)[C@@H]1C/C=C1/C(=O)OC[C@H]1O [Andrographolide]
[1]; [12]
  inhibition at 110 µM: 17%
[3]; [13]
  Percentage of motility inhibition 24 h: 19%

## COC(=O)C[C@](O)(CCCC(C)(C)O)C(=O)O[C@@H]1C(OC)=C[C@]23CCCN2CCc2cc4c(cc2[C@H]13)OCO4 [Homoharringtonine]
[1]; [10]
  inhibition at 110 µM: 20%
[3]; [11]
  Percentage of motility inhibition 0 h: 12%
[3]; [13]
  Percentage of motility inhibition 24 h: 2% and 0%

## O=[N+]([O-])c1ccc(O)c2ncccc12 [Nitroxoline, reference compound]
[1]; [6]
  inhibition at 110 µM: 52 ± 32%
[1]; [7]
  inhibition at 110 µM: 88 ± 2%
[2]; [8]
  EC50: > 60 µM

## Cc1cc(O)cc(C)c1Cl [Chloroxylenol, reference compound]
[1]; [6]
  inhibition at 110 µM: 100%
[1]; [10]
  inhibition at 110 µM: 100%
[1]; [7]
  inhibition at 110 µM: 100%
[1]; [12]
  inhibition at 110 µM: 100%
[2]; [8]
  EC50: > 60 µM

## CC(C)(O)[C@H]1O[C@H]2CC[C@@]3(C)[C@@](O)(CC[C@H]4Cc5c([nH]c6ccccc56)[C@@]43C)C2=CC1=O [Paxilline]
[1]; [10]
  inhibition at 110 µM: 12%
[3]; [13]
  Percentage of motility inhibition 24 h: 0% and 8%

## CCc1c(Cl)c(O)c(Cl)c(O)c1C(=O)O[C@H]1[C@H](O)[C@H](OC)[C@H](OC/C2=C\C=C\C[C@H](O)/C(C)=C/[C@H](CC)[C@@H](O[C@@H]3OC(C)(C)[C@@H](OC(=O)C(C)C)[C@H](O)[C@@H]3O)/C(C)=C/C(C)=C/C[C@@H]([C@@H](C)O)OC2=O)O[C@@H]1C [Fidaxomicin, reference compound]
[1]; [6]
  inhibition at 110 µM: 82 ± 7%
[1]; [7]
  inhibition at 110 µM: 89 ± 1%
[1]; [12]
  inhibition at 110 µM: 88%
[2]; [8]
  EC50: > 60 µM

## Cc1ccc(C(C)C)cc2c(C)ccc1-2 [Guaiazulene]
[1]; [12]
  inhibition at 110 µM: 24%
[3]; 24 h, 110 µM
  Percentage of motility inhibition 24 h: 12%

## Spiramycin [reference compound]
[3]; [14]
  Inhibition (%) 110 μM (0 h): 43 ± 42%
[3]; [15]
  Inhibition (%) 110 μM (24 h): 81 ± 9%
[3]; [11]
  Percentage of motility inhibition 0 h: 42%
[3]; [13]
  Percentage of motility inhibition 24 h: 80%
[2]; [9]
  EC50: > 60 µM

## COc1ccc2cc1Oc1ccc(cc1)C[C@H]1c3cc(c(OC)cc3CCN1C)Oc1c(OC)c(OC)cc3c1[C@H](C2)N(C)CC3 [Tetrandrine]
[1]; [12]
  inhibition at 110 µM: 16%
[3]; 24 h, 110 µM
  Percentage of motility inhibition 24 h: 12%

## CC[C@H]1OC(=O)[C@H](C)[C@@H](O[C@H]2C[C@@](C)(OC)[C@@H](O)[C@H](C)O2)[C@H](C)[C@@H](O[C@@H]2O[C@H](C)C[C@H](N(C)C)[C@H]2O)[C@](C)(O)C[C@@H](C)C(=O)[C@H](C)[C@@H](O)[C@]1(C)O [Erythromycin]
[1]; [12]
  inhibition at 110 µM: 5%
[3]; [11]
  Percentage of motility inhibition 0 h: 10% and 0%

## CC(C)[C@]12O[C@H]1[C@@H]1O[C@]13[C@]1(O[C@H]1C[C@H]1C4=C(CC[C@@]13C)C(=O)OC4)[C@@H]2O [Triptolide]
[1]; 0 h, read-out: Inhibition (%) 110 μM (0 h)
  inhibition at 110 µM: 15%
[1]; 24 h, read-out: Inhibition (%) 110 μM (24 h)
  inhibition at 110 µM: 72 ± 1%
[1]; [12]
  inhibition at 110 µM: 71%
[2]; Caenorhabditis elegans, read-out: EC50 (μM) at 24 h, C. elegans motility, DR assay
  EC50: > 60 µM

## COC(=O)[C@@H]1[C@H]2C[C@H]3c4[nH]c5ccccc5c4CCN3C[C@@H]2CC[C@@H]1O [Yohimbine]
[1]; [10]
  inhibition at 110 µM: 7%
[3]; 0 h, 110 μM
  Percentage of motility inhibition 0 h: 8%

## COC(=O)[C@]1(C)CC[C@]2(C)CC[C@]3(C)C4=CC=C5C(=CC(=O)C(O)=C5C)[C@]4(C)CC[C@@]3(C)[C@@H]2C1 [Pristimerin]
[1]; [10]
  inhibition at 110 µM: 29%
[1]; [12]
  inhibition at 110 µM: 23%
[3]; [11]
  Percentage of motility inhibition 0 h: 15%
[3]; [13]
  Percentage of motility inhibition 24 h: 24%

## CC1(C)CCC[C@](C)([C@H]2CC[C@]3(C)[C@@H]2[C@H](O)C[C@@H]2[C@@]4(C)CC[C@H](O)C(C)(C)[C@@H]4[C@@H](O)C[C@]23C)O1 [Panaxatriol]
[1]; [12]
  inhibition at 110 µM: 15%
[3]; [13]
  Percentage of motility inhibition 24 h: 11%

## COC(=O)[C@H]1[C@H]2C[C@@H]3c4[nH]c5ccccc5c4CCN3C[C@H]2C[C@@H](OC(=O)c2cc(OC)c(OC)c(OC)c2)[C@@H]1OC [Deserpidine]
[1]; [12]
  inhibition at 110 µM: 21%
[3]; [13]
  Percentage of motility inhibition 24 h: 23%

## COc1ccc2c(c1O)-c1c(OC)c(OC)cc3c1[C@H](C2)N(C)CC3 [Isocorydine]
[1]; [10]
  inhibition at 110 µM: 0%
[3]; [13]
  Percentage of motility inhibition 24 h: 7%

## CC(C)=CCc1c(-c2ccc(O)cc2O)oc2c([C@H]3C=C(C)C[C@@H](c4ccc(O)cc4O)[C@@H]3C(=O)c3ccc(O)cc3O)c(O)cc(O)c2c1=O [Kuwanon G]
[4]
  H. contortus LMIT (%): 0.0%
[3]; [14]
  Inhibition (%) 110 μM (0 h): 0 ± 0%
[3]; [15]
  Inhibition (%) 110 μM (24 h): 74 ± 5%
[3]; [13]
  Percentage of motility inhibition 24 h: 75%
[2]; [9]
  EC50: 34.7 ± 1.6 µM
[5]
  H. contortus EHI (%): 9.4 ± 1.8%

## CC12CCC(CC1=O)C2(C)C (stereo not shown) [Camphor]
[1]; [10]
  inhibition at 110 µM: 0%
[1]; [12]
  inhibition at 110 µM: 5%
[3]; [13]
  Percentage of motility inhibition 24 h: 10%

## CCn1cc(C(=O)O)c(=O)c2ccc(C)nc21 [Nalidixic acid]
[1]; [10]
  inhibition at 110 µM: 27%
[1]; [12]
  inhibition at 110 µM: 18%
[3]; [11]
  Percentage of motility inhibition 0 h: 22%
[3]; [13]
  Percentage of motility inhibition 24 h: 26%

## CC[C@H]1[C@@H]2C[C@H]3[C@@H]4N(C)c5ccccc5[C@]45C[C@@H]([C@H]2[C@H]5O)N3[C@@H]1O [Ajmaline]
[1]; [10]
  inhibition at 110 µM: 19%
[3]; [11]
  Percentage of motility inhibition 0 h: 13%
